One assay has as its system HT1080 cells. Description: Cellular assay for IDH1m inhibitors: inhibition of 2-HG production in HT1080 cells (LC-MS). Format: cell-based. Conditions: Homo sapiens, HT-1080, 48 hours. Here is the method: (§1) Cells (e.g., HT1080 or U87MG) are grown in T125 flasks in DMEM containing 10% FBS, 1× penicillin/streptomycin and 500 ug/mL G418. They are harvested by trypsin and seeded into 96 well white bottom plates at a density of 5000 cell/well in 100 ul/well in DMEM with 10% FBS. No cells are plates in columns 1 and 12. Cells are incubated overnight at 37 C in 5% CO2. The next day compounds are made up at 2× concentration and 100 ul are added to each cell well. The final concentration of DMSO is 0.2% and the DMSO control wells are plated in row G. The plates are then placed in the incubator for 48 hours. At 48 hours, 100 ul of media is removed from each well and analyzed by LC-MS for 2-HG concentrations. The cell plate is placed back in the incubator for another 24 hours. At 72 hours post compound addition, 10 mL/plate of Promega Cell Titer Glo reagent is thawed and mixed. The cell plate is removed from the incubator and allowed to equilibrate to room temperature. Then 100 ul of reagent is added to each well of media. The cell plate is then placed on an orbital shaker for 10 minutes and then allowed to sit at room temperature for 20 minutes. The plate is then read for luminescence with an integration time of 500 ms.

For another assay, the target named is IDH1 R132H (Homo sapiens (Human), UniProt O75874, R132H). The assay is described as follows: Assays for IDH1 R132H Inhibitors (NADPH/aKG, resazurin detection). The assay is classed as biochemical. The settings on record: IDH1 R132H enzyme, Table 3; read-out: R132H IC50. In short, it runs like this:
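Substrate mix held 8 uM NADPH plus 2 mM aKG; buffer was 20 mM Tris pH 7.5 with 150 mM NaCl, 10 mM MgCl2, 0.03% BSA. After 50 min room-temperature reaction, NADPH remaining was detected with 30 μM resazurin mix over 5 min.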
In general terms: Resazurin is reduced to fluorescent resorufin, in cell work by metabolically active cells.

The next assay deals with U87R132H (U87MG) cells. The assay is described as follows: Cellular assay for IDH1m inhibitors: inhibition of 2-HG production in U87MG (U87R132H) cells (LC-MS). The assay is classed as cell-based. Conditions: Homo sapiens, U-87 MG, 48 hours. The method, then:
as §1

Chain of IDH1 R132H (O75874 whole entry R132H): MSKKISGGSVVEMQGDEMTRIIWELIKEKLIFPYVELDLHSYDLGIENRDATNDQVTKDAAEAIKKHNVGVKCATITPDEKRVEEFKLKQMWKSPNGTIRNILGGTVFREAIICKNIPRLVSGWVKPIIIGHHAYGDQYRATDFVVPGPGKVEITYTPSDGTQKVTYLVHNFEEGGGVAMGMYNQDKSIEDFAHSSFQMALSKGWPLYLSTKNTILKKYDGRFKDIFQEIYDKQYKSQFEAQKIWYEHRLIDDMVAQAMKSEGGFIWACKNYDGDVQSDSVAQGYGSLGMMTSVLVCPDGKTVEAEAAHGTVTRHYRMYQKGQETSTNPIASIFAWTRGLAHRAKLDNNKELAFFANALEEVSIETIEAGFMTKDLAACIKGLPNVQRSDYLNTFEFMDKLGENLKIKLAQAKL

One may read the IC50 as the concentration needed to halve the response being measured. Consider `CC(C)[C@@H]1CN(c2nc(C3CC3)c3c(c2C#N)CC(C)(C)OC3)CCN1C(=O)CC(F)(F)F` [Compound 423, (R)-8-cyclopropyl-6-(3-isopropyl-4-(3,3,3-trifluoropropanoyl)piperazin-1-yl)-3,3-dimethyl-3,4-dihydro-1H-pyrano[3,4-c]pyridine-5-carbonitrile], for which the figures for the 50% inhibitory concentration (IC50) in the assay on HT1080 cells, at IDH1 R132H and in the assay with U87R132H (U87MG) cells were 1 to 10 µM, under 0.5 µM and 0.5 to 1 µM, respectively.
Take `CC(C)OC(=O)CCC(=O)N1CCN(c2nc(C3CC3)c3c(c2C#N)CC(C)(C)OC3)C[C@H]1C(C)C` [Compound 457, (R)-isopropyl 4-(4-(5-cyano-8-cyclopropyl-3,3-dimethyl-3,4-dihydro-1H-pyrano[3,4-c]pyridin-6-yl)-2-isopropylpiperazin-1-yl)-4-oxobutanoate]: the IC50 is 0.5 to 1 µM with HT1080 cells, under 0.5 µM at IDH1 R132H and 0.5 to 1 µM with U87R132H (U87MG) cells.
Consider `C=CC(=O)N1CCc2c(C3CC3)nc(N3CCN(C(=O)CCOC)[C@H](C4CC4)C3)c(C#N)c2C1` [Compound 483, (R)-6-acryloyl-1-cyclopropyl-3-(3-cyclopropyl-4-(3-methoxypropanoyl)piperazin-1-yl)-5,6,7,8-tetrahydro-2,6-naphthyridine-4-carbonitrile], for which the IC50 in the assay on HT1080 cells, on IDH1 R132H and with U87R132H (U87MG) cells was under 0.5 µM each time.
On to `CCOC(=O)CCC(=O)N1CCN(c2nc(C3CC3)c3c(c2C#N)CC(C)(C)OC3)C[C@H]1C(C)C` [Compound 456, (R)-ethyl-4-(4-(5-cyano-8-cyclopropyl-3,3-dimethyl-3,4-dihydro-1H-pyrano[3,4-c]pyridin-6-yl)-2-isopropylpiperazin-1-yl)-4-oxobutanoate], for which the figures for the IC50 with HT1080 cells, on IDH1 R132H and with U87R132H (U87MG) cells were 0.5 to 1 µM, under 0.5 µM and under 0.5 µM, respectively.
With `CC1(C)Cc2c(C#N)c(N3CCN(C(=O)c4ccoc4)C(C4CC4)C3)nc(C3CC3)c2CO1` (stereo not drawn) [Compound 426, 8-cyclopropyl-6-(3-cyclopropyl-4-(furan-3-carbonyl)piperazin-1-yl)-3,3-dimethyl-3,4-dihydro-1H-pyrano[3,4-c]pyridine-5-carbonitrile], the IC50 was under 0.5 µM in the assay with HT1080 cells, under 0.5 µM on IDH1 R132H and 0.5 to 1 µM with U87R132H (U87MG) cells.
Consider `CC(C)[C@@H]1CN(c2nc(C3CC3)c3c(c2C#N)CC(C)(C)OC3)CCN1C(=O)CC1CCO1` (stereo partly drawn) [Compound 473, 8-cyclopropyl-6-((3R)-3-isopropyl-4-(2-(oxetan-2-yl)acetyl)piperazin-1-yl)-3,3-dimethyl-3,4-dihydro-1H-pyrano[3,4-c]pyridine-5-carbonitrile], for which the half-maximal inhibitory concentration (IC50) is under 0.5 µM in the assay with HT1080 cells, under 0.5 µM on IDH1 R132H and 0.5 to 1 µM in the assay on U87R132H (U87MG) cells.
With `CC(O)CC(=O)N1CCN(c2nc(C3CC3)c3c(c2C#N)CC(C)(C)OC3)C[C@H]1C(C)C` (stereo partly drawn) [Compound 433, 8-cyclopropyl-6-((3R)-4-(3-hydroxybutanoyl)-3-isopropylpiperazin-1-yl)-3,3-dimethyl-3,4-dihydro-1H-pyrano[3,4-c]pyridine-5-carbonitrile], the half-inhibitory concentration (IC50) is 0.5 to 1 µM in the assay with HT1080 cells, under 0.5 µM on IDH1 R132H and 0.5 to 1 µM with U87R132H (U87MG) cells.
On to `COC(=O)N1CCc2c(C#N)c(N3CCN(C(=O)C4CC4)[C@H](C4CC4)C3)nc(C3CC3)c2C1` [Compound 494, (R)-methyl 5-cyano-6-(4-(cyclopropanecarbonyl)-3-cyclopropylpiperazin-1-yl)-8-cyclopropyl-3,4-dihydro-2,7-naphthyridine-2(1H)-carboxylate], for which the values for the IC50 in the assay on HT1080 cells, at IDH1 R132H and with U87R132H (U87MG) cells were under 0.5 µM, 0.5 to 1 µM and under 0.5 µM, respectively.
`CNC(=O)CC(=O)N1CCN(c2nc(C3CC3)c3c(c2C#N)CC(C)(C)OC3)C[C@H]1C(C)C` [Compound 422, (R)-3-(4-(5-cyano-8-cyclopropyl-3,3-dimethyl-3,4-dihydro-1H-pyrano[3,4-c]pyridin-6-yl)-2-isopropylpiperazin-1-yl)-N-methyl-3-oxopropanamide]: the results for the IC50 in the assay on HT1080 cells, at IDH1 R132H and with U87R132H (U87MG) cells were 1 to 10 µM, 0.5 to 1 µM and 1 to 10 µM, respectively.
As to `[2H]C([2H])([2H])C([2H])(C([2H])([2H])[2H])[C@@]1([2H])N(C(=O)CCOC)C([2H])([2H])C([2H])([2H])N(c2nc(C3CC3)c3c(c2C#N)CC(C)(C)OC3)C1([2H])[2H]` [Compound 441, (R)-8-cyclopropyl-6-(2,2,3,3,5,6,6-heptadeuterio-4-(3-methoxypropanoyl)-5-(perdeuteriopropan-2-yl)piperazin-1-yl)-3,3-dimethyl-3,4-dihydro-1H-pyrano[3,4-c]pyridine-5-carbonitrile], the IC50 in the assay with HT1080 cells, on IDH1 R132H and in the assay with U87R132H (U87MG) cells was under 0.5 µM in each case.
On to `COCCC(=O)N1CCN(c2nc(C3CC3)c3c(c2C#N)CC(C)(C)OC3)C[C@H]1C` [Compound 432, (R)-8-cyclopropyl-6-(4-(3-methoxypropanoyl)-3-methylpiperazin-1-yl)-3,3-dimethyl-3,4-dihydro-1H-pyrano[3,4-c]pyridine-5-carbonitrile], for which the figures for the IC50 in the assay on HT1080 cells, at IDH1 R132H and in the assay with U87R132H (U87MG) cells were 1 to 10 µM, 0.5 to 1 µM and 1 to 10 µM, respectively.
With `COCCC(=O)N1CCN(c2nc(C3CC3)c3c(c2C#N)CC(C)(C)OC3)CC1CC(F)(F)F` (stereo not drawn) [Compound 469, 8-cyclopropyl-6-(4-(3-methoxypropanoyl)-3-(2,2,2-trifluoroethyl)piperazin-1-yl)-3,3-dimethyl-3,4-dihydro-1H-pyrano[3,4-c]pyridine-5-carbonitrile], the IC50 was 1 to 10 µM in the assay on HT1080 cells, under 0.5 µM on IDH1 R132H and 1 to 10 µM with U87R132H (U87MG) cells.
In the case of `CC(C)[C@@H]1CN(c2nc(C3CC3)c3c(c2C#N)CC(C)(C)OC3)CCN1C(=O)CCCO` [Compound 443, (R)-8-cyclopropyl-6-(4-(4-hydroxybutanoyl)-3-isopropylpiperazin-1-yl)-3,3-dimethyl-3,4-dihydro-1H-pyrano[3,4-c]pyridine-5-carbonitrile], the IC50 was 1 to 10 µM in the assay with HT1080 cells, under 0.5 µM at IDH1 R132H and 1 to 10 µM with U87R132H (U87MG) cells.
Consider `[2H]C([2H])([2H])C([2H])(C([2H])([2H])[2H])[C@@]1([2H])N(C(=O)CC(F)(F)F)C([2H])([2H])C([2H])([2H])N(c2nc(C3CC3)c3c(c2C#N)CC(C)(C)OC3)C1([2H])[2H]` [Compound 477, (R)-8-cyclopropyl-3,3-dimethyl-6-(2,2,3,5,5-pentadeuterio-3-(1,1,1,3,3,3-hexadeuteriopropan-2-yl)-4-(3,3,3-trifluoropropanoyl)piperazin-1-yl)-3,4-dihydro-1H-pyrano[3,4-c]pyridine-5-carbonitrile], for which the IC50 in the assay on HT1080 cells was 1 to 10 µM; at IDH1 R132H, under 0.5 µM; in the assay with U87R132H (U87MG) cells it was 1 to 10 µM.
As for `COC(=O)NCCC(=O)N1CCN(c2nc(C3CC3)c3c(c2C#N)CC(C)(C)OC3)C[C@H]1C(C)C` [Compound 431, (R)-methyl 3-(4-(5-cyano-8-cyclopropyl-3,3-dimethyl-3,4-dihydro-1H-pyrano[3,4-c]pyridin-6-yl)-2-isopropylpiperazin-1-yl)-3-oxopropylcarbamate], the IC50 fell in the range of 1 to 10 µM in the assay on HT1080 cells, 0.5 to 1 µM on IDH1 R132H and 1 to 10 µM in the assay on U87R132H (U87MG) cells.
Take `CC1(C)Cc2c(C#N)c(N3CCN(C(=O)C4CC4)[C@H](C4CC4)C3)nc(C3CC3)c2CO1` [Compound 461, (R)-6-(4-(cyclopropanecarbonyl)-3-cyclopropylpiperazin-1-yl)-8-cyclopropyl-3,3-dimethyl-3,4-dihydro-1H-pyrano[3,4-c]pyridine-5-carbonitrile]: the IC50 in the assay on HT1080 cells is 0.5 to 1 µM; on IDH1 R132H, under 0.5 µM; in the assay with U87R132H (U87MG) cells, under 0.5 µM.
Consider `COCCC(=O)N1CCN(c2nc(C3CC3)c3c(c2C#N)CC(C)(C)OC3)C[C@H]1C1CC1` [Compound 434, (R)-8-cyclopropyl-6-(3-cyclopropyl-4-(3-methoxypropanoyl)piperazin-1-yl)-3,3-dimethyl-3,4-dihydro-1H-pyrano[3,4-c]pyridine-5-carbonitrile], for which the IC50 in the assay with HT1080 cells, at IDH1 R132H and with U87R132H (U87MG) cells was under 0.5 µM each time.
As for `COCCC(=O)N1CCN(c2nc(C3CC3)c3c(c2C#N)CCN(S(C)(=O)=O)C3)C[C@H]1C1CC1` [Compound 479, (R)-1-cyclopropyl-3-(3-cyclopropyl-4-(3-methoxypropanoyl)piperazin-1-yl)-7-(methylsulfonyl)-5,6,7,8-tetrahydro-2,7-naphthyridine-4-carbonitrile], the IC50 in the assay with HT1080 cells is 0.5 to 1 µM; at IDH1 R132H, under 0.5 µM; in the assay with U87R132H (U87MG) cells, under 0.5 µM.
Consider `CC(C)[C@@H]1CN(c2nc(C3CC3)c3c(c2C#N)CC(C)(C)OC3)CCN1C(=O)[C@@H]1C[C@H]1CO` [Compound 462, 8-Cyclopropyl-6-((R)-4-((1R,2R)-2-(hydroxymethyl)cyclopropanecarbonyl)-3-isopropylpiperazin-1-yl)-3,3-dimethyl-3,4-dihydro-1H-pyrano[3,4-c]pyridine-5-carbonitrile], for which the results for the concentration for half-maximal inhibition (IC50) in the assay on HT1080 cells, on IDH1 R132H and with U87R132H (U87MG) cells were 0.5 to 1 µM, under 0.5 µM and 0.5 to 1 µM, respectively.
